Test [1] relates to HLA-DR4 restricted mouse T cell hybridoma line (DR4.CII.36.8) with HLA-DRB1*04:01-expressing Boleth cells. As to the kind of experiment: HLA-DR4-restricted peptide-specific T cell-based assay (hybridoma assay). Particulars: Mus musculus, T-cell, 6 h, inhibition of IL-2 production, CII259-273 peptide presented by Boleth cells. The essentials: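 IC50 values derive from 4-parameter logistic fits of IL-2 AlphaLISA signal over 8-point duplicate titrations. Compound and HLA-DRB1*04:01 Boleth APCs were preincubated 1 h, 37° C., before adding CII259-273-restricted DR4.CII.36.8 hybridoma cells with peptide for 6 h at 37° C., in DMEM/1% FCS.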

Test [2] has as its system human peripheral blood CD4+ helper T cells. As to the kind of experiment: Pan-CD4+ T cell activation (off-target assay). It is filed as cell-based. The settings on record: Homo sapiens, T-cell, 24 h, anti-CD3/anti-CD28 stimulation, IL-2 production by ELISA. The essentials:
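IL-2 secretion was measured by ELISA of culture supernatant after 24 h of TCR stimulation. Stimulation used anti-CD3 coated at 1 μg/mL and 1 μg/mL soluble anti-CD28 on human blood CD4+ helper T cells without HLA-DR-expressing APCs, with compound or vehicle present.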
Background: An ELISA detects its analyte on a solid surface through an enzyme-linked reagent.

For test [3], the target named is HLA-DRB1*0401 (Homo sapiens (Human), UniProt P01903+P01911, A100K/A169T/DEL228-266/F76Y/I96L/K127E/L162R/M171V/N62H/P40V/Q125Y/R42H/S133A/S149N/S66Y/V115G/V209L/W38E). As to the kind of experiment: HLA-DR4 HTRF assay. In kind it is binding. The settings on record: inhibition of loading of Alexa Fluor 647-labeled Cit-CII peptide onto HLA-DR4 (CLIP cleaved). The essentials: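 HLA-DRB1*04:01 construct (α/β fused to human Fc, CLIP pre-cleaved by HRV3C overnight at 4° C) at 3 nM was preincubated 45 min with compound and 1 nM anti-Fc-Tb donor, then 40 nM Alexa647-Cit-CII1236-1249 peptide added. After 90 min at 37° C, the 665/620 nm HTRF ratio gave % inhibition; IC50 by nonlinear regression.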
(Time-resolved FRET reads energy transfer from a long-lived donor to a nearby acceptor.)

For 19 molecules, IC50 results are on record in patent US12516038B2, “Inhibitors of antigen presentation by HLA-DR” (Janssen Pharmaceutica NV, priority 2020, dated 2026).

In general, IC50 refers to the concentration at which inhibition is half-maximal. A lower IC50 goes with inhibition by little substance. For the molecule `NC(=O)c1ccc([C@@H](Oc2cc3c(cc2F)C(=O)CCO3)c2ccncc2)cc1` (single isomer, unassigned) [Example 52a, (*R)-4-(((6-Fluoro-4-oxochroman-7-yl)oxy)(pyridin-4-yl)methyl)benzamide], the figures for the IC50 in test [1], in test [2] and in test [3] were 560 nM, above 15000 nM and 230 nM, respectively.

In the case of `NC(=O)c1ccc([C@@H](Oc2ccc3c(c2-c2ccccc2)OCCC3=O)c2ccncc2)cc1` (single isomer, unassigned) [Example 53a, (*R)-4-(((4-oxo-8-phenylchroman-7-yl)oxy)(pyridin-4-yl)methyl)benzamide], the IC50 turned out to be 740 nM in test [1], 2100 nM in test [2] and 800 nM in test [3].

With `NC(=O)c1ccc([C@H](Oc2ccc3c(c2-c2ccccc2)OCCC3=O)c2ccncc2)cc1` (single isomer, unassigned) [Example 53b, (*S)-4-(((4-oxo-8-phenylchroman-7-yl)oxy)(pyridin-4-yl)methyl)benzamide], the IC50 was 450 nM in test [1], 3200 nM in test [2] and 600 nM in test [3].

With `NC(=O)c1ccc([C@@H](Oc2cc3c(cc2-c2ccccc2)C(=O)CCO3)c2ccncc2)cc1` (single isomer, unassigned) [Example 54a, (*R)-4-(((4-oxo-6-phenylchroman-7-yl)oxy)(pyridin-4-yl)methyl)benzamide], the concentration for half-maximal inhibition (IC50) in test [1] is 78 nM; in test [2], 520 nM; in test [3], 630 nM.

With `NC(=O)c1ccc([C@H](Oc2cc3c(cc2-c2ccccc2)C(=O)CCO3)c2ccncc2)cc1` (single isomer, unassigned) [Example 54b, (*S)-4-(((4-oxo-6-phenylchroman-7-yl)oxy)(pyridin-4-yl)methyl)benzamide], the IC50 in test [1] is 4300 nM; in test [2], 15000 nM; in test [3], 870 nM.

For `CC1(C)COc2cc(O[C@@H](c3ccncc3)c3ccc(C(N)=O)cc3)ccc2C1=O` (single isomer, unassigned) [Example 56a, (*R)-4-(((3,3-dimethyl-4-oxochroman-7-yl)oxy)(pyridin-4-yl)methyl)benzamide], the IC50 worked out at 1700 nM in test [1], 4600 nM in test [2] and 1400 nM in test [3].

Consider `CC1(C)COc2cc(O[C@H](c3ccncc3)c3ccc(C(N)=O)cc3)ccc2C1=O` (single isomer, unassigned) [Example 56b, (*S)-4-(((3,3-dimethyl-4-oxochroman-7-yl)oxy)(pyridin-4-yl)methyl)benzamide], for which the IC50 is 6000 nM in test [1], above 15000 nM in test [2] and 1300 nM in test [3].

Regarding `Cc1c(O[C@@H](c2ccc(Cl)cc2)c2ccc(C(N)=O)cc2)ccc2c1OCCC2=O` (single isomer, unassigned) [Example 57a, (*R)-4-((4-chlorophenyl)((8-methyl-4-oxochroman-7-yl)oxy)methyl)benzamide], the IC50 in test [1] was 4800 nM; in test [2], above 15000 nM; in test [3], 2300 nM.

Consider `Cc1c(O[C@@H](c2ccncc2)c2ccc(C(N)=O)cc2)c(F)cc2c1OCCC2=O` (single isomer, unassigned) [Example 58a, (*R)-4-(((6-fluoro-8-methyl-4-oxochroman-7-yl)oxy)(pyridin-4-yl)methyl)benzamide], for which the IC50 was found to be 180 nM in test [1], 5300 nM in test [2] and 330 nM in test [3].

For `Cc1c(O[C@H](c2ccncc2)c2ccc(C(N)=O)cc2)c(F)cc2c1OCCC2=O` (single isomer, unassigned) [Example 58b, (*S)-4-(((6-fluoro-8-methyl-4-oxochroman-7-yl)oxy)(pyridin-4-yl)methyl)benzamide], the figures for the IC50 in test [1], in test [2] and in test [3] were 2600 nM, 9900 nM and 730 nM, respectively.

In the case of `Cc1c(O[C@H](c2ccc(C#N)cc2)c2ccc(C(N)=O)cc2)ccc2c1OCCC2=O` (single isomer, unassigned) [Example 59a, (*R)-4-((4-cyanophenyl)((8-methyl-4-oxochroman-7-yl)oxy)methyl)benzamide], the figures for the concentration for half-maximal inhibition (IC50) in test [1], in test [2] and in test [3] were 3200 nM, 4700 nM and 1200 nM, respectively.

For the molecule `Cc1c(O[C@H](c2ccc(C(N)=O)cc2)c2cccc(C#N)c2)ccc2c1OCCC2=O` (single isomer, unassigned) [Example 60a, (*R)-4-((3-cyanophenyl)((8-methyl-4-oxochroman-7-yl)oxy)methyl)benzamide], the results for the IC50 in test [1], in test [2] and in test [3] were 740 nM, 4700 nM and 1800 nM, respectively.

Take `Cc1c(O[C@@H](c2ccc(C(N)=O)cc2)c2cccc(C#N)c2)ccc2c1OCCC2=O` (single isomer, unassigned) [Example 60b, (*S)-4-((3-cyanophenyl)((8-methyl-4-oxochroman-7-yl)oxy)methyl)benzamide]: the figures for the IC50 in test [1], in test [2] and in test [3] were 2300 nM, 9900 nM and 2000 nM, respectively.

In the case of `Cc1c(O[C@H](c2ccc(C(N)=O)cc2)c2ccccc2C#N)ccc2c1OCCC2=O` (single isomer, unassigned) [Example 61a, (*R)-4-((2-cyanophenyl)((8-methyl-4-oxochroman-7-yl)oxy)methyl)benzamide], the IC50 stood at 4600 nM in test [1], 2700 nM in test [2] and 990 nM in test [3].

Consider `Cc1c(O[C@@H](c2ccc(C(N)=O)cc2)c2ccccc2C#N)ccc2c1OCCC2=O` (single isomer, unassigned) [Example 61b, (*S)-4-((2-cyanophenyl)((8-methyl-4-oxochroman-7-yl)oxy)methyl)benzamide], for which the half-maximal inhibitory concentration (IC50) in test [1] was 5200 nM; in test [2] it was above 15000 nM; in test [3] it was 960 nM.

`Cc1c(O[C@H](c2ccc(C(N)=O)cc2)c2ccc(Cl)cn2)ccc2c1OCCC2=O` (single isomer, unassigned) [Example 62a, (*R)-4-((5-chloropyridin-2-yl)((8-methyl-4-oxochroman-7-yl)oxy)methyl)benzamide]: the concentration for half-maximal inhibition (IC50) in test [1] was determined as 8500 nM; in test [2], 4700 nM; in test [3], 1500 nM.

As to `Cc1c(O[C@@H](c2ccc(C(N)=O)cc2)c2ccc(Cl)cn2)ccc2c1OCCC2=O` (single isomer, unassigned) [Example 62b, (*S)-4-((5-chloropyridin-2-yl)((8-methyl-4-oxochroman-7-yl)oxy)methyl)benzamide], the IC50 turned out to be 1800 nM in test [1], 2700 nM in test [2] and 1400 nM in test [3].

As to `Cc1c(O[C@@H](c2ccc(Cl)cc2)c2ccc(C(N)=O)cn2)ccc2c1OCCC2=O` (single isomer, unassigned) [Example 63b, (*S)-6-((4-chlorophenyl)((8-methyl-4-oxochroman-7-yl)oxy)methyl)nicotinamide], the IC50 worked out at 1300 nM in test [1], 4700 nM in test [2] and 1500 nM in test [3].

Take `Cc1c(O[C@H](c2ccc(Cl)cc2)c2ccc(C(N)=O)nc2)ccc2c1OCCC2=O` (single isomer, unassigned) [Example 64a, (*R)-5-((4-chlorophenyl)((8-methyl-4-oxochroman-7-yl)oxy)methyl)picolinamide]: the IC50 in test [1] was 6000 nM; in test [2] it was 2000 nM; in test [3] it was 1700 nM.
